Experimental data as given in BindingDB's records for doi:10.1111/cbdd.12841 (Zhejiang University of Technology, 2017).

What was measured:
[1] = target: T1, Amine oxidase [flavin-containing] A (Homo sapiens, UniProt P21397); test: In vitro MAO-A/B Inhibition Assay
T1 sequence (P21397 whole entry): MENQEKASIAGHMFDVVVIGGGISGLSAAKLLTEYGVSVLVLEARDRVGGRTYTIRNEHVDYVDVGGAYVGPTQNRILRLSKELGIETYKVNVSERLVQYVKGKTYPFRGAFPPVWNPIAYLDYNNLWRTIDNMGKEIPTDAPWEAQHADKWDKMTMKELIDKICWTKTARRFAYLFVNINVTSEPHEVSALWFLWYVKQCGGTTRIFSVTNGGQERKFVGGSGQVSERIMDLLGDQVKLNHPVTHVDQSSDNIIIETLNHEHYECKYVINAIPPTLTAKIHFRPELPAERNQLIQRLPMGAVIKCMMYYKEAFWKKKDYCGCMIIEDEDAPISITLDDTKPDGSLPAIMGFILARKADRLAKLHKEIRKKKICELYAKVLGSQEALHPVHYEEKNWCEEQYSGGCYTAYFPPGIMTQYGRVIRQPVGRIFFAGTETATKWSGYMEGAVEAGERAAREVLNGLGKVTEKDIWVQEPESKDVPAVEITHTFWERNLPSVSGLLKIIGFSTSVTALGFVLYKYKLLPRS
Procedure: (§1) The inhibitory activities of flavones were determined in vitro by using fluorescent probe method following the general procedure described in the literature. [Li et al., Nat. Commun., 5:3276]

[2] = target: T2, Amine oxidase [flavin-containing] B (Homo sapiens, UniProt P27338); test: In vitro MAO-A/B Inhibition Assay
T2 sequence (P27338 whole entry): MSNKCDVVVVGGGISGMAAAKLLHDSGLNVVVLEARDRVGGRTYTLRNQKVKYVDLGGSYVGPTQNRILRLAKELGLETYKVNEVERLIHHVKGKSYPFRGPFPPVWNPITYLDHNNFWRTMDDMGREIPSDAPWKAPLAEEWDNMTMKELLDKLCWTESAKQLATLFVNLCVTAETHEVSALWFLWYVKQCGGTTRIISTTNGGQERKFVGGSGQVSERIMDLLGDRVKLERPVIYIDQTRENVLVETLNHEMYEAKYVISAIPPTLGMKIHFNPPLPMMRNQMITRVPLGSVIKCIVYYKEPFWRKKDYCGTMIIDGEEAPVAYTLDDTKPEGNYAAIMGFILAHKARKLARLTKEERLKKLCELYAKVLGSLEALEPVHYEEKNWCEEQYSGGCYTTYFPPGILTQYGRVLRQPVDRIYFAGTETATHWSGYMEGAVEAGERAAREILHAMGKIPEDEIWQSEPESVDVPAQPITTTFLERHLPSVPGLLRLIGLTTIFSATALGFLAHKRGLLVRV
Procedure: as §1

`O=c1cc(-c2ccc(Cl)cc2)oc2ccc(Cn3cc(CNc4ccccc4)nn3)cc12` [2-(4-chlorophenyl)-6-((4-((phenylamino)methyl)-1H-1,2,3-triazol-1-yl)methyl)-4H-chromen-4-one (Az2k17)] was tested, and the IC50 [1] was 283 µM and the IC50 [2] was 350 µM.

For `O=C(CCc1cn(Cc2ccc3oc(-c4ccc(Cl)cc4)cc(=O)c3c2)nn1)Nc1ccc(F)cc1` [3-(1-((2-(4-chlorophenyl)-4-oxo-4H-chromen-6-yl)methyl)-1H-1,2,3-triazol-4-yl)-N-(4-fluorophenyl)propanamide (Az2k6)], the IC50 [1] was 678 µM and the IC50 [2] was 121 µM.

`O=c1cc(-c2ccccc2)oc2ccc(Cn3nncc3CNc3ccc(Cl)cc3)cc12` [6-((5-(((4-chlorophenyl)amino)methyl)-1H-1,2,3-triazol-1-yl)methyl)-2-phenyl-4H-chromen-4-one (Az2k1)] showed an IC50 [1] of 334 µM and an IC50 [2] of 176 µM.

In the case of `Cc1ccc(NC(=O)CCc2cn(Cc3ccc4oc(-c5ccccc5)cc(=O)c4c3)nn2)cc1` [3-(1-((4-oxo-2-phenyl-4H-chromen-6-yl)methyl)-1H-1,2,3-triazol-4-yl)-N-(p-tolyl)propanamide (Az1k5)], the IC50 [1] is reported as 25.3 µM and the IC50 [2] is reported as 28.5 µM.

In the case of `O=C(CCc1cn(Cc2ccc3oc(-c4ccccc4)cc(=O)c3c2)nn1)Nc1ccc(F)cc1` [N-(4-fluorophenyl)-3-(1-((4-oxo-2-phenyl-4H-chromen-6-yl)methyl)-1H-1,2,3-triazol-4-yl)propanamide (Az1k6)], the IC50 [1] is reported as 738 µM and the IC50 [2] is reported as 134 µM.
